Measured values published in article PMC4941342, “Proteasomal degradation of sphingosine kinase 1 and inhibition of dihydroceramide desaturase by the sphingosine kinase inhibitors, SKi or ABC294640, induces growth arrest in androgen-independent LNCaP-AI prostate cancer cells” (Oncotarget, 2016).

Molecular target: T1, dihydroceramide desaturase (Des1) (Homo sapiens, UniProt O15121)
T1 construct: gene DEGS1
T1 sequence (O15121 2-323): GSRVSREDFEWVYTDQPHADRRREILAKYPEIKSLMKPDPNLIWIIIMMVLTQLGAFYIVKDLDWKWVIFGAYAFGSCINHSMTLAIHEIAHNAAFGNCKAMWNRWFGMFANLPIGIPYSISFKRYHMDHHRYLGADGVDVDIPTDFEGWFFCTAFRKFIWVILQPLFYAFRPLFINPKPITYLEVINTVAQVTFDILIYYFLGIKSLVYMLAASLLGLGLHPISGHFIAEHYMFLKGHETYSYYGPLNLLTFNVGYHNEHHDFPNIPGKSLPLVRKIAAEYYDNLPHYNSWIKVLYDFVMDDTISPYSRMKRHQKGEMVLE
Test: Des1 activity in intact Jurkat cells labeled with DhCer-C6-NBD, HPLC with fluorescence detection
Assay type: cell-based

| Structure (SMILES) | IC50 [µM] |
| --- | --- |
| O=C(NCc1ccncc1)C12CC3CC(C1)CC(c1ccc(Cl)cc1)(C3)C2 [ABC294640, 3-(4-chlorophenyl)-adamantane-1-carboxylic acid (pyridin-4-ylmethyl)amide] | 10.2 |
| Oc1ccc(Nc2nc(-c3ccc(Cl)cc3)cs2)cc1 [SKi, 2-(p-hydroxyanilino)-4-(p-chlorophenyl)thiazole] | 0.63 to 0.69 |
